In brackets after ≈: the same amount, converted by molar mass. Several values for one entry are separate records, joined by “and”; a condition that tells them apart may be missing. Equal entries are not always repeated. Where two headings read alike, the source gives them in different places. Marks after values point to notes of the source that are not given here.
What was measured:
C. krusei strains = test: MFC determination; format: cell-based
C. glabrata strains [1] = test: MFC determination; format: cell-based; parameters: MFC: unit not given beside the values
[2] = test system: Blastomyces dermatitidis, Coccidioides immitis, and Histoplasma capsulatum strains; format: cell-based; conditions: dimorphic fungal isolates; in µg/mL
C. glabrata strains [3] = test: MIC testing (CLSI M27-A3); format: cell-based; parameters: MIC: unit not given beside the values
C. albicans SC5314 = test: In vitro activity (MIC) against the infecting strain, Example 18; format: cell-based, Candida albicans; conditions: Candida albicans, read-out: MIC
[4] = test system: individual Aspergillus spp. (Table 14, species not named); test: MIC testing (CLSI M38-A2), Table 14; format: cell-based; conditions: Aspergillus sp. of Table 14, caspofungin read as MEC
Fusarium strains = test: MIC testing (CLSI M38-A2), Table 17; format: cell-based, Fusarium spp.; conditions: Fusarium strains (Table 17)
[5] = test system: Fusarium strains (Table 18); test: MFC determination, Table 18; format: cell-based, Fusarium spp.
Cr. neoformans strains = test: MIC testing (CLSI M27-A3, YNB, 72 h); format: cell-based, Cryptococcus neoformans
[6] = test system: Candida albicans ATCC 10231; test: MIC50 growth inhibition assay of compositions (OD600), Example 12; format: cell-based; conditions: Candida albicans, concentration giving 50% growth inhibition, read-out: MIC50
Procedure: Efficacy of the compositions was determined using Minimum Inhibitory Concentration assays, and the concentration of active compound giving 50% growth inhibition of the indicator organism was reported (MIC50). The assay was performed in well plates with two (Müller-Hinton medium) or three parallel (M19-medium) cell cultures for each condition.
Cell Culture Medium: Müller-Hinton and M19 without NaCl.
Indicator Organism: Candida albicans ATCC 10231
Stock Solutions of the Active Compounds and Control: • Amphotericin B (USP): vacuum dried powder was dissolved in DMSO to 2.5 mg/mL giving a final concentration after inoculation of 2.5 μg/mL in the well with the highest concentration. • compound 1A (custom made): powder was dissolved in DMSO to 2.5 mg/mL giving a final concentration after inoculation of 2.5 μg/ml compound 1A in the well with the highest concentration. It is assumed that the batch is 70% pure. • Example 3 composition: the formulation was a suspension with 18 mg/mL nanoparticles. The suspension was diluted in a medium and C. albicans inoculum to a final concentration of 5 μg/mL of compound 1A and 130 μg/mL of […]. From this solution 10 dilutions were prepared giving 0.009 μg/ml compound 1A in the lowest concentration. • Empty poly(ethylbutyl cyanoacrylate) particles: empty poly(ethylbutyl cyanoacrylate) particles were used as a reference. The empty poly(ethylbutyl cyanoacrylate) was produced in the same manner as those in Examples 2 and 3, with the exception that they were prepared at pH 1, with vanillin concentration of 10% (w/w), and. The particles were diluted in the same manner as Example 3. The highest poly(ethylbutyl cyanoacrylate) concentration tested was 130 μg/mL.
Growth measurements were performed at OD600.

[7] = test system: individual Aspergillus spp. (Table 13, species not given); test: MFC determination, Table 13; format: cell-based; conditions: Aspergillus sp. of Table 13
all Candida strains [8] = test: MIC testing (CLSI M27-A3), summary; format: cell-based
[9] = test system: individual Aspergillus spp. (Table 14, species not named); test: MFC determination, Table 14; format: cell-based; conditions: Aspergillus sp. of Table 14
all Candida strains [10] = test: MFC determination, summary; format: cell-based
C. tropicalis = test: MIC testing (CLSI M27-A3); format: cell-based
[11] = Drug loading and stability by LC-DAD-QTOF / LC-UV; format: physicochemical; conditions: high concentrations of ascorbic acid
Procedure: The sizes and size distributions were measured using dynamic light scattering (Malvern Zetasizer and Nanoparticles Tracking Analyzer (NTA)) in phosphate buffer (pH 7). Dry weight was determined by drying three sample aliquots at 50° C. overnight. Drug loading and stability was determined weighing/pipetting three sample aliquots, dissolution in DMSO, and dilution for LC-DAD-QTOF analysis. The concentration of compound 1A was determined using three samples of amphotericin B USP as a standard. The LC-QTOF method was: • Mobile phases: 0.1% formic acid [A] and acetonitrile [B] • HPLC system: Agilent 1290 HPLC system with a 1290 DAD connected to a QTOF • Column: Polaris 3 C18, 150×2 mm, 3 μm (Varian) • Column thermostat: 30° C. • Flow rate: 0.3 ml/min • Injection volume: 2 μL • Wavelength: 385 nm for measuring compound 1A/AMB, Scan 190-600 nm • Software: MassHunter Qualitative analysis B.0.600 • Post time: 5 min • QTOF was operated in negative electrospray mode (ESI−) • The HPLC gradient is shown in Table 1.

Candida albicans SC5314 = test: Disseminated candidiasis in immunocompromised murine model (BALB/c mice): tissue fungal burden; format: in vivo; conditions: 7 days
[12] = individual C. glabrata strain with elevated MICs to non-polyene comparators (Table 22)

C[C@@H]1[C@H](O)[C@@H](C)/C=C/C=C/C=C/C=C/C=C/C=C/C=C/[C@H](O[C@@H]2O[C@H](C)[C@@H](O)[C@H](N)[C@@H]2O)C[C@@H]2O[C@](O)(C[C@@H](O)[C@H](O)CC[C@@H](O)C[C@@H](O)C[C@@H](O)CC(=O)O[C@H]1C)C[C@H](O)[C@H]2C [Compound 1A]
MFC Range (C. krusei strains; C. krusei strains, in µg/mL): 0.5-2 | MFC50 (C. krusei strains; C. krusei, kills 50% of strains): 1 µg/mL (≈ 1.12 µM) | MFC90 (C. krusei strains; C. krusei, kills 90% of strains): 2 µg/mL (≈ 2.24 µM) | MFC (C. krusei strains; individual C. krusei strain with elevated MICs to non-polyene comparators (Table 22)): 2 µg/mL (≈ 2.24 µM) | MFC Range (C. glabrata strains [1]; C. glabrata strains, in µg/mL): 0.5-2 | MFC50 (C. glabrata strains [1]; C. glabrata, kills 50% of strains): 1 µg/mL (≈ 1.12 µM) | MFC90 (C. glabrata strains [1]; C. glabrata, kills 90% of strains): 2 µg/mL (≈ 2.24 µM) | MFC (C. glabrata strains [1]; [12]): 1 (5×) and 2 | MIC Range [2]: <0.03-0.25 | MIC Range (C. glabrata strains [3]; C. glabrata strains, in µg/mL): 0.25-2 | MIC50 (C. glabrata strains [3]; C. glabrata, inhibits 50% of strains): 1 µg/mL (≈ 1.12 µM) | MIC90 (C. glabrata strains [3]; C. glabrata, inhibits 90% of strains): 2 µg/mL (≈ 2.24 µM) | MIC (C. glabrata strains [3]; [12]): 1 (5×) and 2 | MIC (C. albicans SC5314): 0.5 µg/mL (≈ 0.559 µM) | MIC Range ([4]; in µg/mL): 1-2 | MIC50 ([4]; inhibits 50% of strains): 2 µg/mL (≈ 2.24 µM) | MIC90 ([4]; inhibits 90% of strains): 2 µg/mL (≈ 2.24 µM) | MIC Range (Fusarium strains; in µg/mL): 1-4 | MIC50 (Fusarium strains; inhibits 50% of strains): 2 µg/mL (≈ 2.24 µM) | MIC90 (Fusarium strains; inhibits 90% of strains): 4 µg/mL (≈ 4.47 µM) | MFC50 ([5]; kills 50% of strains): 2 µg/mL (≈ 2.24 µM) | MFC90 ([5]; kills 90% of strains): > 4 µg/mL | MIC Range (Cr. neoformans strains; Cr. neoformans strains, 72 h, in µg/mL): 0.5-2 | MIC50 (Cr. neoformans strains; Cr. neoformans, inhibits 50% of strains): 1 µg/mL (≈ 1.12 µM) | MIC90 (Cr. neoformans strains; Cr. neoformans, inhibits 90% of strains): 1 µg/mL (≈ 1.12 µM) | MIC50 ([6]; ATCC10231, M19 medium): 0.18 µg/mL (≈ 0.201 µM) | MIC50 ([6]; ATCC10231, Müller-Hinton medium): 0.06 µg/mL (≈ 0.0671 µM) | MFC50 ([7]; kills 50% of strains): 2 µg/mL (≈ 2.24 µM) | MFC90 ([7]; kills 90% of strains): > 4 µg/mL | MIC Range (all Candida strains [8]; in µg/mL): 0.125-8 | MIC50 (all Candida strains [8]; inhibits 50% of strains): 1 µg/mL (≈ 1.12 µM) | MIC90 (all Candida strains [8]; inhibits 90% of strains): 2 µg/mL (≈ 2.24 µM) | MFC50 ([9]; kills 50% of strains): 2 µg/mL (≈ 2.24 µM) | MFC90 ([9]; kills 90% of strains): 4 µg/mL (≈ 4.47 µM) | MFC Range (all Candida strains [10]; in µg/mL): 0.125-16 | MFC50 (all Candida strains [10]; kills 50% of strains): 1 µg/mL (≈ 1.12 µM) | MFC90 (all Candida strains [10]; kills 90% of strains): 2 µg/mL (≈ 2.24 µM) | MIC Range (C. tropicalis; C. tropicalis strains, in µg/mL): 0.5-8 | MIC50 (C. tropicalis; C. tropicalis, inhibits 50% of strains): 1 µg/mL (≈ 1.12 µM) | MIC90 (C. tropicalis; C. tropicalis, inhibits 90% of strains): 8 µg/mL (≈ 8.95 µM) | stability in solution [11]: chemically dehydrated | Brain tissue fungal burden, Mean log CFUs ± the standard deviation (Candida albicans SC5314; Experiment I, 0.35 mg/kg i.v.): 2.92 ± 1.21 log CFUs | Kidney tissue fungal burden, Mean log CFUs ± the standard deviation (Candida albicans SC5314; Experiment I, 0.35 mg/kg i.v.): 3.16 ± 1.41 log CFUs | Brain tissue fungal burden, Mean log CFUs ± the standard deviation (Candida albicans SC5314; Experiment I, 0.7 mg/kg i.v.): 3.59 ± 1.20 log CFUs | Kidney tissue fungal burden, Mean log CFUs ± the standard deviation (Candida albicans SC5314; Experiment I, 0.7 mg/kg i.v.): 2.66 ± 2.11 log CFUs | Brain tissue fungal burden, Mean log CFUs ± the standard deviation (Candida albicans SC5314; Experiment II, 0.35 mg/kg i.v.): 3.55 ± 1.26 log CFUs | Kidney tissue fungal burden, Mean log CFUs ± the standard deviation (Candida albicans SC5314; Experiment II, 0.35 mg/kg i.v.): 3.53 ± 0.63 log CFUs | Brain tissue fungal burden, Mean log CFUs ± the standard deviation (Candida albicans SC5314; Experiment II, 0.7 mg/kg i.v.): 2.97 ± 2.04 log CFUs | Kidney tissue fungal burden, Mean log CFUs ± the standard deviation (Candida albicans SC5314; Experiment II, 0.7 mg/kg i.v.): 2.99 ± 1.05^a,b log CFUs

— patent US20230138395A1, “PHARMACEUTICAL COMPOSITIONS OF A THERAPEUTIC POLYENE MACROLIDE AND METHODS OF THEIR USE” (priority 2020, published 2023)
